{"source": "patent US8603498B2", "about": "“Lipo-phosphated or lipo-sulphated compound, compositions comprising it and topical uses thereof” (Sederma, S.A.S., priority 2010, dated 2013)", "key": {"[1]": {"test_system": "hydroxylated ceramides", "assay": "Hydroxylated ceramides in keratinocytes by HPTLC", "assay_type": "cell-based, human", "conditions": "5 ppm, vs control", "experimental": "The same protocol was followed as before but a larger quantity of keratinocyes was used on this occasion because of the limits of detection of the apparatus. After 7 days, the layers were rinsed, lipids extracted using solvents before being deposited on a thin-layer chromatography plate using an automated device. After migration and detection, the bands were analysed and quantified based on a range of standard lipids deposited on the same plate.\nAt the same time as the HPTLC cholesterol assay, an assay of hydroxylated and non-hydroxylated ceramides was carried out on the extracts."}, "[2]": {"test_system": "fibroblasts", "assay": "Lipid production in fibroblasts", "assay_type": "cell-based", "from_the_text": "(§1) This lipid production by the Lipo-Phosphomalate was not observed in fibroblasts or melanocytes. It is therefore a specific effect related to the metabolism of keratinocyte during its differentiation."}, "[3]": {"test_system": "melanocytes", "assay": "Lipid production in melanocytes", "assay_type": "cell-based", "from_the_text": "as §1"}, "[4]": {"test_system": "hyaluronic acid", "assay": "Synthesis of hyaluronic acid by human keratinocytes (ELISA)", "assay_type": "cell-based", "conditions": "for hyaluronic acid ng/10^e6 cells: 3 days, supernatant", "experimental": "Protocol: Human keratinocytes are humains were cultivated in MW24 plates for 24 h. Cells were contacted or not with the Lipo-Phosphomalate for 3 days. Culture surpernatants were taken and an assay of the quantity of hyaluronic acid was achieved. Retinoic acid was used as the positive control."}, "[5]": {"test_system": "CD44", "assay": "CD44 synthesis by human keratinocytes (immunological labeling)", "assay_type": "cell-based", "conditions": "5 ppm, 22 days", "from_the_text": "Human keratinocytes were cultivitated in 35 mm box to confluence. Cells are contacted or not with the Lipo-Phosphomalate for 22 days. At the end of this contact period, the cells are fixed and an immunological labeling of the CD44 is made using specific antibodies."}, "[6]": {"test_system": "laminin", "assay": "Laminin synthesis by human keratinocytes (ELISA)", "assay_type": "cell-based", "conditions": "for laminin ng/10^e6cells: 3 days, supernatant", "experimental": "Human keratinocytes are humains were cultivated in MW24 plates for 24 h. Cells were contacted or not with the Lipo-Phosphomalate for 3 days. Culture surpernatants were taken and an assay of the quantity of laminin was achieved. TGF-β1 was used as the positive control."}, "[7]": {"test_system": "collagen I", "assay": "Synthesis of collagen I on human dermal fibroblast (immunolabeling)", "assay_type": "cell-based", "conditions": "for collagen I AFU mean: 7 days", "experimental": "Normal human fibroblasts (NHF) are cultivated in MW24 plates for 24 hours. The cells are contacted or not with the Lipo-Phosphomalate of the invention at various concentrations for 7 days. The synthesis of collagen I produced by the cells is then quantified by immunolabeling fixed on the layers using a specific antibody. Quantification by image analysis is then performed on the photos. TGF-β1 is used as positive control.\nAn analysis of variance was performed on the data (cases treated compared with untreated cases). In the case of identity of variances, a Student't test was then performed on the means."}, "[8]": {"test_system": "G3PDH", "assay": "G3PDH activity in differentiating 3T3-L1 cells", "assay_type": "cell-based", "experimental": "(§2) 3T3-L1 cells were cultivated until sub-confluence, then induced to differentiate with the appropriate mixture with or without the Lipo-Phosphomalate at different concentrations. After 3 days of incubation, the differenciation mixture is replaced by a new maintaining culture medium, in the presence or not of the Lipo-Phosphomalate. After 3 days of incubation, the cell layers are collected and the activity of G3PDH is assayed."}, "[9]": {"test_system": "triglycerides", "assay": "Synthesis of intracellular triglycerides in 3T3-L1 cells (enzymatic method)", "assay_type": "cell-based", "experimental": "as §2, with “quantity” for “cell layers are collected and the activity”, “intracellular triglycerides” for “G3PDH”, “measured by enzymatic method.” for “assayed.”"}, "[10]": {"test_system": "3T3-L1 cells", "assay": "Lipid incorporation by 3T3-L1 cells (oil red, image analysis)", "assay_type": "cell-based", "experimental": "3T3-L1 cells are sowed and cultivated for 4 days (multiplication). Follow a differentiation phase (incubation with a classic differentiation mixture) and then a maturation phase (with a maturation mixture) in the presence or not of the Lipo-Phosphomalate at different concentrations. At the end of this period, cells were washed, fixed and coloured with oil red. The cell layers were photographed digitally and the red color is quantified by image analysis. The surface percentages of red oil, reported in the table below, were established compared to untreated control cells, and the test validated by comparison to pioglytazone (10 μM), positive control for stimulation of differentiation."}, "[11]": {"target": "T1, tyrosinase (Homo sapiens, UniProt P14679)", "T1 construct": "endogenous in cells; host or cells: human melanocytes (homogenates)", "T1 sequence (P14679 19-529)": "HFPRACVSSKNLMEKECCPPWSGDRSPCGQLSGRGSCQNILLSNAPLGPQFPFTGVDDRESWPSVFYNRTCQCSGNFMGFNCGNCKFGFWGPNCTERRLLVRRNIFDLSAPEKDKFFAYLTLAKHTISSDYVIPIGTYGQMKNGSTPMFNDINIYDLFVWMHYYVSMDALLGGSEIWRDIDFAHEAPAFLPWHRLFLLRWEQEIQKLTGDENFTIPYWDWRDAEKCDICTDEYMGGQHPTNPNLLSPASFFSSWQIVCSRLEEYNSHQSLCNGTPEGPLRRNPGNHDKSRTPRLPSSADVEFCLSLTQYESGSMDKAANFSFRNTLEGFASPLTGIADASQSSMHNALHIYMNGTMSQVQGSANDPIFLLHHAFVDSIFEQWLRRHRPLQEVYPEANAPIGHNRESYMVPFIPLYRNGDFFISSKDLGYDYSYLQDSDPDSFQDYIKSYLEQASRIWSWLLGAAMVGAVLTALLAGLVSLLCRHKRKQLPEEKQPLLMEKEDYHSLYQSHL", "assay": "Tyrosinase activity of human melanocytes", "assay_type": "cell-based", "conditions": "5 days", "experimental": "Human melanocyte are sowed and contacted with the […] for 5 days. At the end of the incubation period, the residual tyrosinase activity was measured in cell homogenates."}}, "data": [{"smiles": "CCCCCCCCCCCCCCOC(=O)CC(OP(=O)(O)O)C(=O)O", "note": "(stereo not shown) [Lipo-Phosphomalate, 2-phosphate-succinic-acid-4-tetradecyle ester]", "values": [{"measurement": "Hydroxylated Ceramides Change (number of times)", "setting": "[1]", "result": "×7.5"}, {"measurement": "lipid production (cholesterol, ceramides)", "setting": "[2]", "result": "not observed"}, {"measurement": "lipid production (cholesterol, ceramides)", "setting": "[3]", "result": "not observed"}, {"measurement": "hyaluronic acid % Change/control", "setting": "[4]; 1.67 ppm", "result": "+16%; p < 0.01"}, {"measurement": "hyaluronic acid ng/10^e6 cells", "setting": "[4]; 1.67 ppm", "result": "1015 +/− 46 ng/10^e6 cells"}, {"measurement": "hyaluronic acid % Change/control", "setting": "[4]; 5 ppm", "result": "+57%; p < 0.01"}, {"measurement": "hyaluronic acid ng/10^e6 cells", "setting": "[4]; 5 ppm", "result": "1374 +/− 50 ng/10^e6 cells"}, {"measurement": "hyaluronic acid % Change/control", "setting": "[4]; 8.33 ppm", "result": "+69%; p < 0.01"}, {"measurement": "hyaluronic acid ng/10^e6 cells", "setting": "[4]; 8.33 ppm", "result": "1480 +/− 51 ng/10^e6 cells"}, {"measurement": "CD44 % Variation/control", "setting": "[5]", "result": "+587%; p <"}, {"measurement": "CD44 UFA/10^6 cells", "setting": "[5]", "result": "27.20 +/− 16.5 UFA/10^6 cells"}, {"measurement": "CD44 variation/control (times)", "setting": "[5]", "result": "0.01 => ×7"}, {"measurement": "laminin % Variation/control", "setting": "[6]; 1.67 ppm", "result": "+64%; p < 0.01"}, {"measurement": "laminin ng/10^e6cells", "setting": "[6]; 1.67 ppm", "result": "190 +/− 11 ng/10^e6cells"}, {"measurement": "laminin % Variation/control", "setting": "[6]; 5 ppm", "result": "+187%; p < 0.01"}, {"measurement": "laminin ng/10^e6cells", "setting": "[6]; 5 ppm", "result": "333 +/− 10 ng/10^e6cells"}, {"measurement": "laminin % Variation/control", "setting": "[6]; 8.33 ppm", "result": "+196%; p < 0.01"}, {"measurement": "laminin ng/10^e6cells", "setting": "[6]; 8.33 ppm", "result": "343 +/− 10 ng/10^e6cells"}, {"measurement": "collagen I AFU mean", "setting": "[7]; Eq 1%", "result": "8.1 +/− 5.6 AFU"}, {"measurement": "collagen I % Variation/control", "setting": "[7]; Eq 1%, p = 0.09", "result": "+60%;"}, {"measurement": "collagen I % Variation/control", "setting": "[7]; Eq 3%", "result": "+315%;"}, {"measurement": "collagen I AFU mean", "setting": "[7]; Eq 3%", "result": "21.1 +/− 13.8 AFU"}, {"measurement": "collagen I % Variation/control", "setting": "[7]; Eq 5%", "result": "+496%;"}, {"measurement": "collagen I AFU mean", "setting": "[7]; Eq 5%", "result": "30.4 +/− 14.6 AFU"}, {"measurement": "G3PDH activity % Change/control", "setting": "[8]; 10 ppm", "result": "+158%; p < 0.01"}, {"measurement": "G3PDH activity % Change/control", "setting": "[8]; 15 ppm", "result": "+225%; p < 0.01"}, {"measurement": "intracellular triglycerides % Change/control", "setting": "[9]; 10 ppm", "result": "+112%; p < 0.01"}, {"measurement": "intracellular triglycerides % Change/control", "setting": "[9]; 15 ppm", "result": "+210%; p < 0.01"}, {"measurement": "surface of red oil % Change/control", "setting": "[10]; 10 ppm", "result": "+171%; p < 0.01"}, {"measurement": "surface of red oil % Change/control", "setting": "[10]; 15 ppm", "result": "+294%; p < 0.01"}, {"measurement": "surface of red oil % Change/control", "setting": "[10]; 20 ppm", "result": "+481%; p < 0.01"}, {"measurement": "tyrosinase activity Variation (%)", "setting": "[11]; 10 ppm", "result": "−21%; p < 0.01"}, {"measurement": "tyrosinase activity Variation (%)", "setting": "[11]; 12 ppm", "result": "−28%; p < 0.01"}, {"measurement": "tyrosinase activity Variation (%)", "setting": "[11]; 15 ppm", "result": "−31%; p < 0.01"}]}]}
